Test results taken from patent US11125741B2, “Compositions and methods for the detection of zinc” (Northwestern University, priority 2012, dated 2021).

What was measured:
mouse eggs [1] = assay: Time-lapse imaging of zinc sparks and calcium transients in parthenogenetically activated eggs; assay type: cell-based
Description: Time-lapse imaging of parthenogenetically activated eggs. Eggs were first incubated in 10 μM Calcium Green-1 AM (Invitrogen) and 0.04% (w/v) Pluronic F-127 (Invitrogen) for either 30 min (mouse) or 60 min (non-human primate) at 37° C. Mouse eggs were washed in calcium-free KSOM (Millipore) and transferred to a 50 μl drop containing 10 mM SrCl2 (Sigma-Aldrich) and 50 μM FluoZin-3 (Invitrogen) on a glass-bottom dish (Bioptechs Inc.). Non-human primate eggs were transferred to one end of a long and shallow drop (20 μl) of calcium-free KSOM (Millipore) containing 50 μM FluoZin-3 (Invitrogen) on a glass-bottom dish (Bioptechs Inc.), covered with oil for embryo culture (Irvine Scientific, Santa Ana, Calif.). Ionomycin was perfused in at the opposite end to a final concentration of 20 μM. In both cases, image acquisition began immediately and occurred every 4 s for a total of 1-3 hours (mouse) or 15 min (non-human primate), unless noted otherwise. All images were acquired on a TCS SP5 confocal microscope (Leica Microsystems) equipped with a stage top incubator (Tokai Hit), 20× objective, and an Ar (488 nm) laser line.
Additional experiments were consistent with this determination. […] Second, zinc sparks were absent in eggs treated with the membrane permeable acetoxymethyl ester (AM) derivative of 1,2-bis(o-aminophenoxy)ethane-N,N,N′,N′-tetraacetic acid (BAPTA).
The polarization of the zinc-enriched vesicles mirrors that of the cortical granules (CG), which are exocytic vesicles that participate in the cortical reaction, which involves the hardening of the zona pellucida to establish a block to polyspermy at fertilization (Ducibella. (1996) Hum Reprod Update 2, 29-42.; herein incorporated by reference in its entirety). […] In most cases, subsequent sparks were inhibited (SEE FIG. 9). Experiments conducted during development of embodiments of the present invention indicate that zinc-containing vesicles are pre-fused with the egg membrane, allowing the first spark to occur even in the presence of CytoB. This type of phenomenon has been described for cortical granules in the sea urchin egg, where one subset of CGs are in a hemifused state prior to activation21.

[2] = Gee et al. 2002; cited from earlier work
mouse eggs [3] = assay: TPEN treatment and spindle imaging of mouse eggs; assay type: cell-based; settings: 10 μM, 8 hrs of culture
Description: FIGS. 12a-e show perturbation of intracellular zinc availability causes activation of the egg. Following 8 hours of culture, control eggs maintain a metaphase II spindle (a, sp) with individual chromosomes aligned at the metaphase plate (b). In contrast, eggs exposed to 10 μM TPEN for the same period artificially activate as indicated by the formation of an intact pronucleus (c, pn) with decondensed chromatin surrounding a nucleolus (d).
TPEN treatment and spindle imaging of mouse eggs. Superovulated eggs were collected and transferred to KSOM medium (Millipore) with or without 10 μM TPEN and cultured up to 8 hrs at 37° C. in an atmosphere of 5% CO2 in air. […] Eggs were fixed and permeabilized for 30 min at 37° C. in a solution containing 2% formaldehyde, 2% Triton X-100, 100 mM PIPES, 5 mM MgCl2, and 2.4 mM EGTA. Eggs were then washed and blocked for 1-3 hrs in 1× PBS containing 0.1 M glycine, 3 mg/mL BSA, 0.01% Tween-20, and 0.01% sodium azide followed by incubation with […] (1:100, Sigma) in blocking buffer for 1 hr at 37° C. Eggs were washed again in blocking buffer, incubated in Alexa Fluor 488-conjugated goat anti-mouse IgG (Invitrogen) and rhodamine-phalloidin conjugate (Invitrogen) at 37° C. for 1 hr, washed three additional times, and mounted on microscopy slides with coverslips in Vectashield with DAPI. […]

[4] = pM reflects the log of the free ion concentration; cited from earlier work
activated mouse eggs = settings: 10 μM, 10 min at 1.5 hpa
[5] = treated prior to strontium chloride activation

Compound: CC(=O)OCOC(=O)CN(CC(=O)OCOC(C)=O)c1ccccc1OCCOc1ccccc1N(CC(=O)OCOC(C)=O)CC(=O)OCOC(C)=O [BAPTA AM]
- parthenogenetic activation on long-term exposure (mouse eggs [1]; 10 μM): did not parthenogenetically activate eggs
- calcium transients and zinc sparks (mouse eggs [1]; extended culture in strontium chloride): both calcium transients and zinc sparks were absent
- second polar body extrusion and pronucleus formation (mouse eggs [1]; strontium chloride activation): did not extrude a second polar body or form a pronucleus

Compound: C=C1[C@@H](C)[C@H]2[C@H](Cc3ccccc3)NC(=O)[C@]23OC(=O)/C=C/[C@H](O)CCC[C@@H](C)C/C=C/[C@H]3[C@@H]1O [CytoB, cytochalasin B]
- calcium oscillations upon activation (mouse eggs [1]; [5]): normal calcium oscillations
- zinc sparks upon activation (mouse eggs [1]; [5]): only exhibit a single zinc spark

Compound: COc1ccc(N(CC(=O)O)CC(=O)O)c(OCCOc2cc(-c3c4cc(F)c(=O)cc-4oc4cc(O)c(F)cc34)ccc2NCC(=O)O)c1 [FluoZin-3]
- fluorescence turn-on for Zn [2]: 80 fold

Compound: c1ccc(CN(CCN(Cc2ccccn2)Cc2ccccn2)Cc2ccccn2)nc1 [TPEN]
- egg activation (pronucleus-like structure) (mouse eggs [3]): had a pronucleus-like structure at significantly higher rates
- zinc sparks in zinc-insufficient eggs (mouse eggs [1]; oocytes treated during in vitro maturation, then activated): did not undergo zinc sparks

Compound: CCOC(=O)COc1cc(NS(=O)(=O)c2ccc(C)cc2)c2nc(C)ccc2c1 [zinquin ethyl ester]
- pM value [4]: 9.3

Compound: carbonic anhydrase
- pM value [4]: 12.4

Compound: zinc pyrithione [ZnPT]
- eggs lacking a pronucleus with aligned chromosomes (activated mouse eggs): eighty-four
- eggs that formed a pronucleus (activated mouse eggs; scored 6-8 hpa): seventeen
